According to patent publication EP0885890A1, “SULFONYLUREIDOPYRAZOLE DERIVATIVES” (SUMITOMO PHARMACEUTICALS COMPANY, LIMITED, priority 1996, dated 1997):

Columns and labels:
[1] = target: T1, rat lung ECE (Rattus norvegicus, UniProt P42893); test: ECE inhibitory activity (rat lung ECE, conversion of human big ET-1 to ET-1, sandwich enzyme immunoassay); type: biochemical; conditions: rat lung ECE 10 µg, human big ET-1 0.8µg, 37°C, one hour
T1 construct: The solution was ultracentrifuged to obtain a supernatant, which can be used as the rat lung ECE; from tissue; host or cells: rat lung
T1 sequence (P42893 1-762): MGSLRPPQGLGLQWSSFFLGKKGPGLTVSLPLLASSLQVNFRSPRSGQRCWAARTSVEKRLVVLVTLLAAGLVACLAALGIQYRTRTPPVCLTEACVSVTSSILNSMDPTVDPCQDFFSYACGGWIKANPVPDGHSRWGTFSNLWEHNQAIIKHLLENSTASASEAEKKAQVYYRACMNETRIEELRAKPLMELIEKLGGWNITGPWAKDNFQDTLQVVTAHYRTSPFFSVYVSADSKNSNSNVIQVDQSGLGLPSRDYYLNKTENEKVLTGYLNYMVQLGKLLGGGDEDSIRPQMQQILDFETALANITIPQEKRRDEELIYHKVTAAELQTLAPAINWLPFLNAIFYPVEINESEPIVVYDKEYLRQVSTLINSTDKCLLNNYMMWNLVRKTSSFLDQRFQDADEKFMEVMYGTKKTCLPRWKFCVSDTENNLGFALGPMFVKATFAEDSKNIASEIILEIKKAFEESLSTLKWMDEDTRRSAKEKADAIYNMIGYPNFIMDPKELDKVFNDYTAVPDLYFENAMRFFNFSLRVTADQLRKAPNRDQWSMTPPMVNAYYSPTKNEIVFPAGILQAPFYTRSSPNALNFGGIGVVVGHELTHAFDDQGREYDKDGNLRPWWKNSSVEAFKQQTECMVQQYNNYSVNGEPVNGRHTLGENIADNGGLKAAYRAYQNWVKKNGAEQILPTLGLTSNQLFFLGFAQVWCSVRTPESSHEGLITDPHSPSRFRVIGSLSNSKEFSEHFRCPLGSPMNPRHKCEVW
Experimental: Preparation of rat lung ECE and measurement of ECE inhibitory activity
Rat lung tissue was homogenized with a homogenizer in ice-cold 20 mM Tris-HCl buffer (pH7.5) containing 5 mM magnesium chloride, 1 mM phenylmethylsulfonyl fluoride (PMSF), 20 µM pepstatin A, and 20 µM leupeptin. The homogenate was centrifuged at 800 x G, and the supernatant was ultracentrifuged at 100,000 x G. Then, the procedures in which the resulting pellet was resuspended in the above buffer and ultracentrifuged as shown above, were repeated further twice so that plasma components and the like were removed. The resulting pellet was suspended, homogenized with a glass homogenizer, and ultracentrifuged. The resulting pellet was solubilized in 0.5% Triton X- 100. The solution was ultracentrifuged to obtain a supernatant, which can be used as the rat lung ECE. Each test compound and the rat lung ECE (10 µg) were preincubated at 37°C for 15 minutes in a 100mM Tris-HCl buffer (pH7.0) containing 1mM NEM, 100µM leupeptin, and 20µM pepstatin A, and then human big ET-1 (0.8µg) was added thereto (totally 200µl), and the mixture was incubated at 37°C for one hour.
The reaction was stopped by the addition of EDTA to give a final concentration of 1mM. ECE activities were determined to quantify the produced ET-1 by the ET-1 specific sandwich enzyme immunoassay method.
ECE inhibitory activities of the test compounds were evaluated by determination of the ECE activities in the presence or absence of the test compounds.

[2] = target: T2, ECE (Rattus norvegicus, UniProt P42893); test: Effect on the change in blood pressure induced by big ET-1 in anesthetized rats (ECE inhibition in vivo); design: species or system Male SD rat; conditions: for Increase in systolic pressure: 15 minutes before big ET-1 (1nmol/kg i.v.), vehicle group 96 ± 4
T2 construct: from tissue; host or cells: whole anesthetized male SD rat (in vivo)
T2 sequence (P42893 1-762): T1 sequence (P42893 1-762)
Experimental: Test 2 Effect on the change in blood pressure induced by big ET-1 in rats
Male SD rat (body weight 230∼280g) was anesthetized with sodium thiobarbiturate (65mg/kg, i.p.) and fixed on a warming surgical bed, and the right femoral artery and the vein were cannulated for measurement of arterial blood pressure and for injection of test compounds, respectively. The ganglia were blocked by intraperitoneal administration of pentolinium (10mg/kg). After stabilization of blood pressure for about 10 minutes, test compound or its vehicle (polyethylene glycol 400) was administered intravenously (0.5ml/kg). Fifteen minutes later, the big ET-1 (1nmol/kg) was administered intravenously. ECE inhibitory activities of the test compounds in vivo shown by an index of the change in blood pressure induced by big ET-1 were evaluated by inhibitory ratio to that of the vehicle group.

[3] = target: stromelissin (Homo sapiens, UniProt P08254); test: Inhibitory activity against metalloproteases other than ECE (stromelissin); type: biochemical; conditions: at 10^-5M
Sequence of stromelissin (P08254 100-477): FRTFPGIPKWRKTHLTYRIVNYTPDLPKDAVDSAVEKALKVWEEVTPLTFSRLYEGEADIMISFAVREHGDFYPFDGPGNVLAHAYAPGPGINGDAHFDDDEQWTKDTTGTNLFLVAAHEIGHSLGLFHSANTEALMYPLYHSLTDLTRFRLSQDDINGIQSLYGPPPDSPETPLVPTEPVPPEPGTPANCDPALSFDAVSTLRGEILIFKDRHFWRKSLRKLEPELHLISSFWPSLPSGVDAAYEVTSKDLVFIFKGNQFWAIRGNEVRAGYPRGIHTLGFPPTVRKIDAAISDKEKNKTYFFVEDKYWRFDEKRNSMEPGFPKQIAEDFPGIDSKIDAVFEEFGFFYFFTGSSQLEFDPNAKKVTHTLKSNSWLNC
Text: (§1) The inhibitory activity of the compound of Preparation 1 against metalloproteases other than ECE, such as endopeptidase, stromelissin, and the like, are under 20% at 10^-5M, and therefore, the compound is highly specific to ECE.

[4] = test system: endopeptidase; test: Inhibitory activity against metalloproteases other than ECE (endopeptidase); type: biochemical; conditions: at 10^-5M
Text: as §1

For `Cc1ccc(S(=O)(=O)NC(=O)Nc2c(C#N)cnn2C2CCCCC2)cc1` [Example 4, 4-cyano-1-cyclohexyl-5-{3-(4-toluenesulfonyl)ureido}-(1H)-pyrazole], which IC50 [1] is on record?
Its IC50 is 290 nM.

With `Cc1nn(-c2ccccc2)c(NC(=O)NS(=O)(=O)c2ccc(Cl)cc2)c1C#N` [Example 37, 4-cyano-3-methyl-1-phenyl-5-{3-(4-chlorobenzenesulfonyl)ureido}-(1H)-pyrazole] as the compound, how does the IC50 [1] read?
Its IC50 is 45 nM.

And the “Big ET-1-induced increasing in blood pressure” value ([2]; 3 and 10mg/kg intravenously)?
The value was “apparently inhibited”.

What about the “Increase in systolic pressure” value ([2]; Dose 3 mg/kg intravenously) of the same compound?
The value was 65 ± 8 mmHg.

And the “Increase in systolic pressure” value ([2]; Dose 10 mg/kg intravenously)?
The value was 34 ± 6 mmHg.

`Cc1ccc(S(=O)(=O)NC(=O)Nc2c(C#N)cnn2-c2ccccc2)cc1` [Preparation 1, 4-cyano-1-phenyl-5-{3-(4-toluenesulfonyl)ureido}-(1H)-pyrazole] was tested. Which inhibition at 10 µM [3] did it give?
The inhibition at 10 µM was < 20%.

What about the IC50 [1] of the same compound?
The IC50 was 4600 nM.

And the inhibitory activity [4]?
Its inhibitory activity is “under 20%”.
